{"source": "patent US20180140578A1", "about": "“METHODS AND COMPOSITIONS FOR THE DIAGNOSIS AND SELECTIVE TREATMENT OF CANCER” (Board of Regents of the University of Texas System, priority 2016, published 2018)", "key": {"[1]": {"system": "indisulam resistant HCT-116 clones", "assay": "Cell viability assay, indisulam resistant clones", "type": "cell-based, human", "conditions": "six indisulam resistant clones", "method": "(§1) The methods for generating a population of barcoded HCT-116 cells were described before (20). […] Clones that appeared after the selection was then expanded and barcode genotyped to identify six clones with unique barcodes. […] Source data for exome sequencing data is available under NCBI SRA accession SRP068238. Bortezomib resistant clones were isolated by selection with 5 nM bortezomib, and MLN4924 resistant clones with 40 nM MLN4924.\n(§2) 12-point dose responses were performed on 96-well assay plates with cell plating (1500-4000 cell per well) on day 1, compound addition on day 2, and survival measurement on day 5. Compounds were diluted in DMSO before adding to the cells. Final DMSO concentration was 0.5%. Cell survival assay was performed using CellTiter-Glo Luminescent Cell Viability Assay kit (Promega) that measures cellular ATP content. Luminescence was recorded by EnVison multimode plate reader (Perkin Elmer). IC50 was determined with GraphPad Prism using baseline correction (by normalizing to DMSO control), the asymmetric (five parameter) equation and least squares fit."}, "HCT-116 cells": {"system": "HCT-116 cells", "assay": "Cell viability assay (CellTiter-Glo)", "type": "cell-based, human", "conditions": "for toxicity to HCT-116 cells: at concentrations as high as 50 μM; for IC50: read-out: concentration required to reduce the viability by 50% (IC50), parental HCT-116 cells", "method": "The identity for all human cell lines in this study was confirmed by short tandem repeat (STR) analysis. In addition, all human cell lines were confirmed to be mycoplasma free using a PCR based assay (Genatlantis). HCT-116 cells (ATCC) were grown in DMEM medium with 10% FBS and 2 mM L-glutamine. Lenti-X 293T cells (Clontech) were cultured in DMEM medium with 10% FBS and 2 mM L-glutamine. H1155 cells (a gift from Adi Gazdar and John Minna, UT Southwestern) were cultured in RPMI media with 5% FBS and 2 mM L-glutamine. SF9 cells (a gift from Hongtao Yu, UT Southwestern) were cultured in SF900 II serum free media (Life Technologies).\nas §2"}, "[2]": {"system": "RBM39 in parental HCT-116 cells", "assay": "Block of indisulam dependent RBM39 degradation, parental cells", "type": "cell-based, human", "from_the_text": "(§3) (B) RBM39-AID is degraded in the presence of TIR1 and IAA in HCT-116 cells. (C) IAA and TIR1 dependent degradation of RBM39-AID results in cell death. Error bars represent standard errors of the mean (SEM) (n=3). […] The effect of bortezomib is attenuated in a bortezomib resistant cell line. […] The effect of MLN4924 is abrogated in an MLN4924 resistant cell line.\n(§4) Proteins were resolved on SDS-PAGE and transferred to 0.5 μm nitrocellulose membranes. Membranes were blocked in 5% milk TBST for 30 min, and then anti-RBM39 antibodies (HPA001591, Sigma-Aldrich) were added in 5% milk (1:5000) and incubated on a shaker overnight at 4° C. After three 5 min washes with TBST, membranes were incubated with HRP-conjugated goat anti-rabbit secondary antibody (Bio-Rad) for 2 hr at room temperature. After three 5 min washes with TBST, membranes were developed with ECL (enhanced chemiluminescence) substrates."}, "[3]": {"system": "RBM39 in PSMB5 A108T HCT-116 cells", "assay": "Block of indisulam dependent RBM39 degradation, bortezomib resistant line", "type": "cell-based, human", "conditions": "PSMB5 A108T cell line", "from_the_text": "as §3, §1, §4"}, "RBM39-AID": {"system": "RBM39-AID", "assay": "Auxin induced degradation of RBM39 (western blotting)", "type": "cell-based, human", "conditions": "cells that express both RBM39-AID and TIR1", "method": "(§5) TIR1 cDNA with a V5 tag sequence appended to its 3′ end was cloned into pLVX IRES zsGreenland packaged into lentivirus to infect both parental HCT-116 cells and RBM39-AID-3xFLAG knock-in cells. Following lentiviral delivery of TIR1, cells with top 5% strongest zsGreen expression were sorted by FACS. TIR1-V5 expression was confirmed by western blot with HRP conjugated anti-VS (Sigma-Aldrich, V2260, 1:5000). For examination of RBM39-AID-3xFLAG degradation, cells were treated with 500 μM IAA for 4 hours before being lysed for western blotting. For IAA dose response curves, cells were treated with various concentrations of IAA for 72 hours and ATP levels were quantified using Cell-Titer Glo (Promega)."}, "[4]": {"system": "HCT-116 cells expressing RBM39-AID and TIR1", "assay": "IAA dose response, cell viability (Cell-Titer Glo)", "type": "cell-based, human", "conditions": "cells that express both RBM39-AID and TIR1", "method": "as §5"}, "RBM39-Nluc": {"biological_target": "T1, RBM39-Nluc (Homo sapiens, UniProt Q14498+Q66K64)", "T1 construct": "Homology directed repair facilitates tagging of endogenous RBM39 by AID, 3xFLAG, AcGFP, or Nanoluciferase; endogenous in cells; host or cells: H1155 RBM39-Nluc knock-in cells", "assay": "RBM39-Nluc degradation by Nano-Glo luciferase assay", "type": "cell-based", "conditions": "H1155 RBM39-Nluc cells; read-out: decrease in RBM39-Nluc activity (IC50)", "method": "NanoLuc was knocked-in to the 3-prime end of the RBM39 gene using the procedure described above yielding H1155 RBM39-Nluc cells. […] Luminescence was recorded by EnVision multimode plate reader (Perkin Elmer). IC50 was determined with GraphPad Prism using baseline correction (by normalizing to DMSO control), the asymmetric (five parameter) equation and least squares fit."}, "[5]": {"system": "HCT-116 RBM39 G268V knock-in cells", "assay": "Cell viability assay, RBM39 G268V knock-in", "type": "cell-based, human", "conditions": "at concentrations as high as 50 μM", "method": "as §2\nsgRNA targeting RBM39 (5′-[…]-3′) was cloned into the pSpCas9(BB)-2A-Puro (PX459) vector (Addgene 62988). For RBM39 G268V knock-in, 1 million HCT-116 or H1155 cells were nucleofected (using 4D-Nucleofector, Lonza) with PX459-RBM39 sgRNA and the single-stranded oligo 5′-[…] […] […] […]-3′ (SEQ ID NO: 13)."}, "[6]": {"biological_target": "T2, DCAF15-3xFLAG and RBM39Δ150 (Homo sapiens, UniProt Q14498+Q66K64)", "T2 construct": "Full-length cDNAs encoding CUL4A, CUL4B, DCAF15, and DDB1 were cloned into pLVX IRES Puro; made in house; host or cells: RBM39Δ150: Sf9 (baculovirus); DCAF15-3xFLAG: anti-FLAG beads from HCT-116 or 293T cells stably expressing it", "T2 sequence (Q66K64 whole entry, stated change not applied)": "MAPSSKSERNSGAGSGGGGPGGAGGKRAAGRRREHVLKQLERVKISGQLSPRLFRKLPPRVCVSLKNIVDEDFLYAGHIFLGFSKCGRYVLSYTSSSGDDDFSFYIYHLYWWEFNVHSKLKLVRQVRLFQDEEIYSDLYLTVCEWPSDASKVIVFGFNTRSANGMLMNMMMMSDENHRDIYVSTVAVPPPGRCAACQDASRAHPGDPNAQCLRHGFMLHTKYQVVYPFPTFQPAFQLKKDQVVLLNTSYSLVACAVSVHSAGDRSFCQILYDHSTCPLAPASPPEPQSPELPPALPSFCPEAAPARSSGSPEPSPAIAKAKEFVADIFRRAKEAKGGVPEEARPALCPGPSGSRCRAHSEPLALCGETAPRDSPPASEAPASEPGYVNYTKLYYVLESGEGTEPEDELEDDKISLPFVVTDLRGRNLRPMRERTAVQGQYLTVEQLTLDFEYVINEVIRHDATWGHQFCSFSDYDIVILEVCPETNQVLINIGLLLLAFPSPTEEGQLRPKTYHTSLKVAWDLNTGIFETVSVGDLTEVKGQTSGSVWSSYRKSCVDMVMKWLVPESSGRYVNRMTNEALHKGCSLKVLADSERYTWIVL", "T2 sequence (Q14498 151-530 limits assumed, stated change not applied)": "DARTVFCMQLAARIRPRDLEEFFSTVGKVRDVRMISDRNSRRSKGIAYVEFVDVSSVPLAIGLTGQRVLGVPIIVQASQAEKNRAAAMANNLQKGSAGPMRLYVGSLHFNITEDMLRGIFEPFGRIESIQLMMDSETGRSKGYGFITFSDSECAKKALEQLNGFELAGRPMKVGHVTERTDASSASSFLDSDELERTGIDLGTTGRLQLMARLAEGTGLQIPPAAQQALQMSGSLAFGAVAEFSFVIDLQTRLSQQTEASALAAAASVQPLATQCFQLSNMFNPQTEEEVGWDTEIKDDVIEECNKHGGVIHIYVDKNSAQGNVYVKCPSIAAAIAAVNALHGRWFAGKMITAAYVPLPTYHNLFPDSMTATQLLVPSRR", "T2 sequence (Q16531 whole entry partner)": "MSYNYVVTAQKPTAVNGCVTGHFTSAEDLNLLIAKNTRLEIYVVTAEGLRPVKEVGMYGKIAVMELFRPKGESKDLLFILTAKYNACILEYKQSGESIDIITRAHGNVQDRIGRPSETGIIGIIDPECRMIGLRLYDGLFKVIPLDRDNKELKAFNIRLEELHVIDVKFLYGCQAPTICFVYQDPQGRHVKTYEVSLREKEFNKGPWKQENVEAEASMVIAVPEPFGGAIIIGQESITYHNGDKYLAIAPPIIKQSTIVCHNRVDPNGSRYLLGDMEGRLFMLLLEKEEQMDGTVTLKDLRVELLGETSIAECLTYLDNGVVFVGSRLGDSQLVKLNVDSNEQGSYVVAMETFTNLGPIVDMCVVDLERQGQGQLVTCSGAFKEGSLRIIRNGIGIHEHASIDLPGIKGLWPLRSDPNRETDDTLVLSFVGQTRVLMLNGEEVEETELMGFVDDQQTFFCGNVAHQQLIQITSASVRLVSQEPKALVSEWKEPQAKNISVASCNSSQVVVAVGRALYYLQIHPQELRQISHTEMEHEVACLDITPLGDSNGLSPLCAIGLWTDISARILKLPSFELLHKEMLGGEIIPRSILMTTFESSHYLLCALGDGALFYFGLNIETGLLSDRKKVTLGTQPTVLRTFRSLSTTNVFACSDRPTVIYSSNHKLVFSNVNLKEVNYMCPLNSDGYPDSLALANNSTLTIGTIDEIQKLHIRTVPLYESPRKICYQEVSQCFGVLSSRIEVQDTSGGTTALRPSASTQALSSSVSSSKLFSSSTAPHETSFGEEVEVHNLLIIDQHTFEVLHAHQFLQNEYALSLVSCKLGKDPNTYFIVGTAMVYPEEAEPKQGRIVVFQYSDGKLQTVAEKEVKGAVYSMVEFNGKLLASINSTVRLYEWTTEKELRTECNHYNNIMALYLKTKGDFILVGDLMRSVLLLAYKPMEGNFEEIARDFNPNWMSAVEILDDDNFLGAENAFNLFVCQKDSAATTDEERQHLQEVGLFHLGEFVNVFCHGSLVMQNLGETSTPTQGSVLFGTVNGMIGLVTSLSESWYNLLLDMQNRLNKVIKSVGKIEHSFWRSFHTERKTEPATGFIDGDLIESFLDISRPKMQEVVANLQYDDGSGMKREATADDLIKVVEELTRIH", "assay": "RBM39Δ150 pulldown assay", "type": "binding", "conditions": "wild type RBM39Δ150", "method": "RBM39 lacking the first 150 amino acids after the start codon (RBM39Δ150) was cloned into the pFastBac1 (Life Technologies) vector. Site-directed Mutagenesis of RBM39 was performed using Q5 site-directed mutagenesis kit (NEB). DCAF15-GST (C-terminal GST tag) and DDB1 were also cloned into pFastBac1. The production of baculovirus was carried out following vendor's instructions. Protein was expressed in SF9 cells by infection with each protein specific baculovirus, and cells were harvested 48 hr later and frozen in liquid nitrogen. For purification of RBM39Δ150, frozen cells were pulverized by cryomill and resuspended in lysis buffer (40 mM Tris, pH 7.5, 225 mM NaCl, 1× […] Protease inhibitor). The lysate was passed through a 22 gauge needle 2 times followed by ultracentrifugation at 25000 rpm for 30 min. Clarified lysate was incubated with Ni-NTA agarose (Qiagen) for 30 min with rotation at 4° C. Resin and bound protein were washed with wash buffer 1 (40 mM Tris, pH 7.5, 225 mM NaCl) followed by wash buffer 2 (40 mM Tris, pH 7.5, 20 mM imidazole, 225 mM NaCl). Proteins were eluted with elution buffer (40 mM Tris, pH 7.5, 300 mM imidazole, 225 mM NaCl) and concentrated to 0.5 ml. Concentrated proteins were then fractionated on Superdex 200 Increase 10/300 GL (GE Healthcare). RBM39Δ150 and mutants eluted at 14.8 ml after injection and were stored at −80° C. in 40 mM Tris, pH 7.5, 225 mM NaCl. For purification of DCAF15-GST/DDB1, Sf9 cells co-infected with DCAF15-GST and DDB1 baculoviruses were lysed in PBS supplemented with 0.1% NP40, 1× […] Protease inhibitors, and 0.5 mM PMSF. The lysate was passed through a 22 gauge needle 2 times followed by centrifugation at 7000 rpm for 15 min. Clarified lysate was incubated with Glutathione Sepharose 4B resin (GE healthcare) for 30 min with rotation at 4° C. Resin was washed with PBS for three times before elution with 50 mM Tris, 10 mM glutathione, pH 8.\nHCT-116 cells stably expressing DDB1-3xFLAG, CUL4A-3xFLAG, CUL4B-3xFLAG, or to DCAF15-3xFLAG were lysed in 1×PBS, 0.1% NP40, and 1× […] protease inhibitor (1 ml per […] plate). […]"}, "[7]": {"system": "DCAF15-3xFLAG and mutant RBM39Δ150 (M265L, E271Q, P272S)", "assay": "RBM39Δ150 pulldown assay, mutant RBM39", "type": "binding, human", "conditions": "M265L, E271Q, P272S", "method": "RBM39 lacking the first 150 amino acids after the start codon (RBM39Δ150) was cloned into the pFastBac1 (Life Technologies) vector. Site-directed Mutagenesis of RBM39 was performed using Q5 site-directed mutagenesis kit (NEB). DCAF15-GST (C-terminal GST tag) and DDB1 were also cloned into pFastBac1. The production of baculovirus was carried out following vendor's instructions. Protein was expressed in SF9 cells by infection with each protein specific baculovirus, and cells were harvested 48 hr later and frozen in liquid nitrogen. For purification of RBM39Δ150, frozen cells were pulverized by cryomill and resuspended in lysis buffer (40 mM Tris, pH 7.5, 225 mM NaCl, 1× […] Protease inhibitor). The lysate was passed through a 22 gauge needle 2 times followed by ultracentrifugation at 25000 rpm for 30 min. Clarified lysate was incubated with Ni-NTA agarose (Qiagen) for 30 min with rotation at 4° C. Resin and bound protein were washed with wash buffer 1 (40 mM Tris, pH 7.5, 225 mM NaCl) followed by wash buffer 2 (40 mM Tris, pH 7.5, 20 mM imidazole, 225 mM NaCl). Proteins were eluted with elution buffer (40 mM Tris, pH 7.5, 300 mM imidazole, 225 mM NaCl) and concentrated to 0.5 ml. Concentrated proteins were then fractionated on Superdex 200 Increase 10/300 GL (GE Healthcare). […]"}, "[8]": {"system": "RBM39 in UBA3 A171T HCT-116 cells", "assay": "Block of indisulam dependent RBM39 degradation, MLN4924 resistant line", "type": "cell-based, human", "conditions": "cells harboring UBA3 A171T mutation", "from_the_text": "as §3, §1, §4"}}, "note": "Read-outs that look alike come from different tables or passages of the source."}
{"smiles": "CC(=O)O[C@H]1C(=O)[C@@]2(C)[C@H]([C@H](OC(=O)c3ccccc3)[C@]3(O)C[C@H](OC(=O)[C@H](O)[C@@H](NC(=O)c4ccccc4)c4ccccc4)C(C)=C1C3(C)C)[C@]1(OC(C)=O)CO[C@@H]1C[C@@H]2O", "note": "[paclitaxel]", "values": [{"measurement": "resistance of indisulam resistant clones to paclitaxel", "setting": "[1]", "result": "None of the clones were resistant"}]}
{"smiles": "CC(=O)Nc1nnc(S(N)(=O)=O)s1", "note": "[acetazolamide]", "values": [{"measurement": "toxicity to HCT-116 cells", "setting": "HCT-116 cells", "result": "non-toxic"}]}
{"smiles": "CC(C)C[C@H](NC(=O)[C@H](Cc1ccccc1)NC(=O)c1cnccn1)B(O)O", "note": "[bortezomib]", "values": [{"measurement": "concentration of bortezomib that blocked the degradation of RBM39 in response to indisulam", "setting": "[2]; parental cells, 2 h pretreatment, then 6 h 2 μM indisulam", "result": 10, "unit": "nM"}, {"measurement": "level of bortezomib required for comparable rescue of RBM39 levels, relative to parental", "setting": "[3]", "result": 10, "unit": "fold"}]}
{"smiles": "O=C(O)Cc1c[nH]c2ccccc12", "note": "[IAA, 3-indoleacetic acid]", "values": [{"measurement": "RBM39 levels", "setting": "RBM39-AID", "result": "decrease in RBM39 levels"}, {"measurement": "cell viability", "setting": "[4]", "result": "loss in cell viability"}]}
{"smiles": "CC1(C)O[C@@H]2[C@@H](CO[C@@]3(COS(N)(=O)=O)OC(C)(C)O[C@@H]23)O1", "note": "[topirimate, topiramate]", "values": [{"measurement": "toxicity to HCT-116 cells", "setting": "HCT-116 cells", "result": "non-toxic"}]}
{"smiles": "Nc1ccc(S(=O)(=O)Nc2cnc3c(Cl)cccc3n2)cc1", "note": "[CQS, chloroquinoxaline sulfonamide]", "values": [{"measurement": "IC50", "setting": "HCT-116 cells; Homo sapiens", "result": 7.1, "unit": "µM"}, {"measurement": "DC50", "setting": "RBM39-Nluc", "result": 2.4, "unit": "µM"}]}
{"smiles": "O=C(NS(=O)(=O)c1ccc(Br)s1)c1ccc(Cl)cc1Cl", "note": "[tasisulam]", "values": [{"measurement": "IC50", "setting": "HCT-116 cells", "result": 6.5, "unit": "µM"}, {"measurement": "sensitivity of cell line carrying RBM39 G268V", "setting": "[5]", "result": "insensitive"}, {"measurement": "recruitment of RBM39Δ150 to DCAF15", "setting": "[6]", "result": "recruit RBM39Δ150 to DCAF15 in a dose-dependent manner"}, {"measurement": "recruitment of indisulam-resistant mutants of RBM39 to DCAF15", "setting": "[7]", "result": "not effectively recruited"}, {"measurement": "IC50", "setting": "RBM39-Nluc", "result": 5.6, "unit": "µM"}]}
{"smiles": "NS(=O)(=O)OC[C@@H]1C[C@@H](n2ccc3c(N[C@H]4CCc5ccccc54)ncnc32)C[C@@H]1O", "note": "[MLN4924]", "values": [{"measurement": "effect on degradation of RBM39 in response to indisulam", "setting": "[2]; HCT-116 cells", "result": "blocked the degradation of RBM39"}, {"measurement": "effect on degradation of RBM39 in response to indisulam", "setting": "[8]", "result": "did not observe this effect"}]}
